Common to all, as to assay type: cell-based
The subject of experiment [1] is Trypanosoma brucei rhodesiense strain STIB 900 (bloodstream trypomastigotes). Put plainly: microbe, parasite or virus in culture. The settings on record: for IC50: read-out: IC50 TB.
Experiment [2] concerns Leishmania donovani strain MHOM/ET/67/L82 (axenic amastigotes). Put plainly: in vitro growth inhibition of L. donovani. The settings on record: for IC50: read-out: IC50 LD.
For experiment [3], the system named is L6 rat skeletal myoblasts. Put plainly: cytotoxicity against mammalian cells. The settings on record: read-out: IC50 L6.
Experiment [4] deals with Trypanosoma cruzi strain Tulahuen C2C4 (intracellular amastigotes in L6 cells). Put plainly: in vitro growth inhibition of T. cruzi. Conditions: for SI TC: ratio of cytotoxic (L6) over antiparasitic IC50.
The mark [5] stands for this setting: Trypanosoma brucei, pure compound.
[6] abbreviates: ratio of cytotoxic (L6) over antiparasitic IC50.
Where [7] appears, read: pure compound, read-out: IC50 TC.
The mark [8] stands for this setting: Rattus norvegicus, Myoblast, cytotoxicity, pure compound.
Where [9] appears, read: Trypanosoma cruzi, TULAHUEN, L6, pure compound, read-out: IC50 TC.
Setting [10] is: Leishmania donovani, pure compound.

The structures appear in SMILES notation. Read-outs that look alike come from different tables or passages of the source.

The IC50 is the concentration that inhibits the measured activity by half. Regarding `Nc1nc(N)nc(Nc2ccc([As]3SCC(CO)S3)cc2)n1` (stereo not drawn) [Melarsoprol], the IC50 in experiment [1] (setting [5]) came to 0.005 µM.
As for `O=C1C(O)=C(C2=C(O)C(=O)c3ccccc3C2=O)C(=O)c2ccccc21` [2,2′-bis-(3-Hydroxy-1,4-naphthoquinone)], the IC50 came to 7340 nM in experiment [2] (pure compound); 68.8 µM in experiment [1] (pure compound); 61.6 µM in experiment [3] (cytotoxicity, pure compound); 237 µM in experiment [4] (setting [7]). Also, the “SI LD” value in experiment [2] (setting [6]) was determined as 8.4. Moreover, the “SI TB” value in experiment [1] (setting [6]) is on record as 0.9. Further, the “SI TC” value in experiment [4] amounted to 0.3.
Turning to `O=C1C=CC(=O)c2c(O)cccc21` [Juglone], the “SI LD” value in experiment [2] was 10.4. Also, the IC50 is 2020 nM in experiment [2] (Leishmania donovani), 1.62 µM in experiment [1] (Trypanosoma brucei), 21 µM in experiment [3] (setting [8]) and more than 100 µM in experiment [4] (setting [9]). Besides, the “SI TB” value in experiment [1] is reported as 13.0.
As for `O=C(Cn1ccnc1[N+](=O)[O-])NCc1ccccc1` [Benznidazole], the IC50 in experiment [4] (setting [9]) was 2.33 µM.
Regarding `OC[C@H]1O[C@@H](Oc2ccc(O)c3cccc(O)c23)[C@H](O)[C@@H](O)[C@@H]1O` [Compound 1, 4-O-β-D-Glucopyranosyl-1,4,5-trihydroxynaphthalene], the IC50 in experiment [2] (setting [10]) was 16700 nM; in experiment [2] (pure compound, listed as Hydrojuglone glucoside (1)), 16600 nM; in experiment [1] (setting [5]), 6.1 µM; in experiment [1] (Trypanosoma brucei), 6.12 µM; in experiment [3] (setting [8]) it was 122 µM; in experiment [3] (cytotoxicity, pure compound, listed as Hydrojuglone glucoside (1)), 122 µM. The 50% inhibitory concentration (IC50) in experiment [4] (setting [9]) amounted to 169 µM. For the same compound, the “SI LD” value in experiment [2] (setting [6]) is 7.3; in experiment [2] (ratio of cytotoxic (L6) over antiparasitic IC50, listed as Hydrojuglone glucoside (1)), 7.4. Besides, in experiment [1], the “SI TB” value came to 20.0. Also, the “SI TC” value in experiment [4] turned out to be 0.7.
As for `CC(C)=CCC1=C(O)C(=O)c2ccccc2C1=O` [Lapachol], the IC50 in experiment [2] (setting [10]) was determined as 3330 nM; in experiment [1] (setting [5]), 16.4 µM; in experiment [3] (setting [8]), 26.6 µM; in experiment [4] (setting [9]), 17.6 µM. Further, in experiment [2] (setting [6]), the “SI LD” value turned out to be 8.0. In addition, in experiment [1] (setting [6]), the “SI TB” value stood at 1.6. In experiment [4], the “SI TC” value came out at 1.5.
For the compound `COc1cc([C@@H]2c3cc4c(cc3[C@H](O)[C@H]3COC(=O)[C@H]23)OCO4)cc(OC)c1OC` [Podophyllotoxin], the IC50 in experiment [3] (setting [8]) is 0.014 µM.
Consider `O=C1C=CC(=O)c2ccccc21` [1,4-Naphthoquinone], for which the IC50 was 2380 nM in experiment [2] (setting [10]), 0.58 µM in experiment [1] (setting [5]), 6.39 µM in experiment [3] (setting [8]) and 9.24 µM in experiment [4] (setting [9]). Besides, the “SI LD” value in experiment [2] (setting [6]) is recorded as 2.7. Also, the “SI TB” value in experiment [1] (setting [6]) was 11.1. Besides, the “SI TC” value in experiment [4] came to 0.7.
Regarding `CC(C)=CC[C@@H](O)C1=CC(=O)c2c(O)ccc(O)c2C1=O` [Shikonin], the IC50 in experiment [2] (Leishmania donovani) was found to be 120 nM; in experiment [1] (setting [5]), 0.03 µM; in experiment [3] (Rattus norvegicus, Myoblast) it was 0.06 µM; in experiment [4] (Trypanosoma cruzi, TULAHUEN, L6, read-out: IC50 TC) it was 0.27 µM. In addition, in experiment [2] (setting [6]), the “SI LD” value was 0.5. Moreover, the “SI TB” value in experiment [1] (setting [6]) is given as 2.1. The “SI TC” value in experiment [4] is 0.2.
On to `CC1=CC(=O)c2c(O)cccc2C1=O` [Plumbagin], for which the IC50 in experiment [2] (setting [10]) was 880 nM; in experiment [1] (setting [5]), 0.49 µM; in experiment [3] (setting [8]) it was 2.87 µM; in experiment [4] (setting [9]) it was 3.59 µM. Also, the “SI LD” value in experiment [2] (setting [6]) is listed as 3.3. Moreover, the “SI TB” value in experiment [1] (setting [6]) is 5.9. Also, the “SI TC” value in experiment [4] turned out to be 0.8.
Take `OC[C@H]1O[C@@H](Oc2ccc(O)cc2)[C@H](O)[C@@H](O)[C@@H]1O` [Arbutin (1,4-benzoquinone glucoside), Arbutin]: the IC50 is more than 367000 nM in experiment [2] (setting [10]), 236 µM in experiment [1] (setting [5]), more than 367 µM in experiment [3] (setting [8]) and 244 µM in experiment [4] (setting [9]). For the same compound, the “SI TB” value in experiment [1] (setting [6]) is more than 1.5. Moreover, in experiment [4], the “SI TC” value was more than 1.5.
`CCCCCCCCCCCCCCCCOP(=O)([O-])OCC[N+](C)(C)C` [Miltefosine]: the IC50 in experiment [2] (setting [10]) was found to be 180 nM.
Take `O=C1C=C(O)C(=O)c2ccccc21` [Lawson]: the IC50 in experiment [2] (pure compound) stood at 1990 nM; in experiment [1] (pure compound) it was 101 µM; in experiment [3] (cytotoxicity, pure compound), 20.6 µM; in experiment [4] (setting [7]) it was 37.4 µM. In experiment [2] (setting [6]), the “SI LD” value stood at 10.3. For the same compound, the “SI TB” value in experiment [1] (setting [6]) came out at 0.2. In experiment [4], the “SI TC” value was determined as 0.6.

Source of the values: paper PMC6272576, “PLS-Prediction and Confirmation of Hydrojuglone Glucoside as the Antitrypanosomal Constituent of Juglans Spp” (Molecules, 2015).
